ChEMBL document CHEMBL1147047, “Design of protein membrane interaction inhibitors by virtual ligand screening, proof of concept with the C2 domain of factor V” (Proc Natl Acad Sci U S A, 2007)
The source made the active and inactive calls. No cut-off for these calls is given here.

How the values were obtained:
Coagulation factor V [1] = target: T1, Coagulation factor V (Homo sapiens, UniProt P12259); assay: Inhibition of factor 5a-mediated prothrombin activation in human plasma at 100 uM by prothrombinase assay
T1 sequence (P12259 29-737 limits assumed): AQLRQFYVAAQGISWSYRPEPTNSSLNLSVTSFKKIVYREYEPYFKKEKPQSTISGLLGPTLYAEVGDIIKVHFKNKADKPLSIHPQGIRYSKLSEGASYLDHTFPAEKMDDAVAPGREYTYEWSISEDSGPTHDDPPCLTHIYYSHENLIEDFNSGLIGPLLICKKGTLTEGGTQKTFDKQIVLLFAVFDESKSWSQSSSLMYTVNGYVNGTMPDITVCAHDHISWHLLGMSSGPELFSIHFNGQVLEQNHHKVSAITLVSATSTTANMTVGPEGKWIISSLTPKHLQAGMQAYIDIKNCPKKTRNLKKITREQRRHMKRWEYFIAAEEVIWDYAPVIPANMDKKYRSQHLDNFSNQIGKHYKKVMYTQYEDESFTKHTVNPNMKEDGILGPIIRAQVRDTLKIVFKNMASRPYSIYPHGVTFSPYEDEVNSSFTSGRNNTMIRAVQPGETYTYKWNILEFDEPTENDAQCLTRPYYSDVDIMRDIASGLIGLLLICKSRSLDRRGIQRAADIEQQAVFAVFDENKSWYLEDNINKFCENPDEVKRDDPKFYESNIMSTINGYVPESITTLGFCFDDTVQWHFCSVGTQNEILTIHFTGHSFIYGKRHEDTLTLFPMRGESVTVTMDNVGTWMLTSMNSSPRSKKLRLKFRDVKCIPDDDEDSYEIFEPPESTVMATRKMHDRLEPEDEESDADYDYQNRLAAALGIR
T1 sequence (P12259 1574-2224 limits assumed): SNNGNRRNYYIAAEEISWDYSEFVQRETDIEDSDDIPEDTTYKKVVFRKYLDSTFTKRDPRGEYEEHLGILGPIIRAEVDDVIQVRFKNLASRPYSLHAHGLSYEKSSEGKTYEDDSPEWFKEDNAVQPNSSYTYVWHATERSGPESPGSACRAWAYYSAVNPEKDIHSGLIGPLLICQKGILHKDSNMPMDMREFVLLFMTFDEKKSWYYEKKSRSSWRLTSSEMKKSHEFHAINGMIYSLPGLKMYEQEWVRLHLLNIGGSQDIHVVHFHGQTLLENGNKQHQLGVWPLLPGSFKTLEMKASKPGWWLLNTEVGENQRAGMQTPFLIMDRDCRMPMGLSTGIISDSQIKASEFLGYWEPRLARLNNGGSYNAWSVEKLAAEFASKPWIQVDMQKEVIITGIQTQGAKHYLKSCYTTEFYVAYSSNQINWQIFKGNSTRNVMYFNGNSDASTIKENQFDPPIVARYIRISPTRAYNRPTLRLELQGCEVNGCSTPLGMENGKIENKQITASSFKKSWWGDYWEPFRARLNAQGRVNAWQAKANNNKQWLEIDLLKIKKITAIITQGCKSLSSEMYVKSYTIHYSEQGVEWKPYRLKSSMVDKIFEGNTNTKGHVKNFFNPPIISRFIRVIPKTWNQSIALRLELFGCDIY

[2] = target: Coagulation factor X (Homo sapiens) (UniProt P00742); assay: Inhibition of factor 10a in human plasma; format: cell-free
Chain of Coagulation factor X (Homo sapiens) (P00742 41-179 limits assumed): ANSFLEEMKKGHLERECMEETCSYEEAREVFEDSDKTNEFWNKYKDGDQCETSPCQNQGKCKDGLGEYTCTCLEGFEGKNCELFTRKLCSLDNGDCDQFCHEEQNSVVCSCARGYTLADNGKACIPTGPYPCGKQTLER
Chain of Coagulation factor X (Homo sapiens) (P00742 235-488 limits assumed): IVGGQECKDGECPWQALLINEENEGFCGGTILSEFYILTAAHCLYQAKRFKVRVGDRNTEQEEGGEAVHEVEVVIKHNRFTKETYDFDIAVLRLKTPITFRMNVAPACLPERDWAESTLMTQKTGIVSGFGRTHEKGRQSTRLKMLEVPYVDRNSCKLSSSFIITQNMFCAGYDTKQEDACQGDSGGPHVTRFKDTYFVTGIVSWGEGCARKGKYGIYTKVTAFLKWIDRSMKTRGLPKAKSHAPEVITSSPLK

Coagulation factor V [3] = target: T1, Coagulation factor V; assay: Inhibition of human factor 5a light chain binding to immobilized phospholipid by surface plasmon resonance assay
Coagulation factor V [4] = target: T1, Coagulation factor V; assay: Inhibition of factor 5a-mediated prothrombin activation in human plasma by prothrombinase assay; format: cell-free
Coagulation factor V [5] = target: T1, Coagulation factor V; assay: Inhibition of human recombinant factor 5a C2 domain binding to immobilized phospholipid by surface plasmon resonance assay
[6] = target: Prothrombin (Homo sapiens) (UniProt P00734); assay: Inhibition of calcium-dependent membrane binding activity of prothrombin
Coagulation factor VIII = Coagulation factor VIII (Homo sapiens, UniProt P00451); assay: Inhibition of human factor 8 binding to immobilized phospholipid by surface plasmon resonance assay
Chain of Coagulation factor VIII (P00451 20-759 limits assumed): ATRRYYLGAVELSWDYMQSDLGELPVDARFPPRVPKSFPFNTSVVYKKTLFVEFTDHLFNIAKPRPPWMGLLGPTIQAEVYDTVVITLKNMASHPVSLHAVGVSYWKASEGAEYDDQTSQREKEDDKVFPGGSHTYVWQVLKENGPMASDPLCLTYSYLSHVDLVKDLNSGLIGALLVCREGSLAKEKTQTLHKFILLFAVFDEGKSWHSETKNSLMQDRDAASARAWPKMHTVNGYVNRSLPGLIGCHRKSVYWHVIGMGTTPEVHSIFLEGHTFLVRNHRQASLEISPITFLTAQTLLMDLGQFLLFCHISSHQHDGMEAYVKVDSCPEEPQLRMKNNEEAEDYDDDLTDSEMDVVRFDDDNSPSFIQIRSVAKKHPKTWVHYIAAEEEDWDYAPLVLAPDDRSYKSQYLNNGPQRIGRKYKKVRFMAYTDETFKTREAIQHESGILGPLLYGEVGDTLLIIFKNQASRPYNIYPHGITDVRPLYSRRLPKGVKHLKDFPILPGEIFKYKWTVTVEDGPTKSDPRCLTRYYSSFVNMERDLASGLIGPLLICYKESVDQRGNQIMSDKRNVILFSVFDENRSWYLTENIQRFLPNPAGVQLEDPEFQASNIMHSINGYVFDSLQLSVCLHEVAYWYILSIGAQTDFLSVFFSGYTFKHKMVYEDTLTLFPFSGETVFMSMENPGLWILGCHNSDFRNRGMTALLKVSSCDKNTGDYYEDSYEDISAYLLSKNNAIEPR
Chain of Coagulation factor VIII (P00451 1668-2351 limits assumed): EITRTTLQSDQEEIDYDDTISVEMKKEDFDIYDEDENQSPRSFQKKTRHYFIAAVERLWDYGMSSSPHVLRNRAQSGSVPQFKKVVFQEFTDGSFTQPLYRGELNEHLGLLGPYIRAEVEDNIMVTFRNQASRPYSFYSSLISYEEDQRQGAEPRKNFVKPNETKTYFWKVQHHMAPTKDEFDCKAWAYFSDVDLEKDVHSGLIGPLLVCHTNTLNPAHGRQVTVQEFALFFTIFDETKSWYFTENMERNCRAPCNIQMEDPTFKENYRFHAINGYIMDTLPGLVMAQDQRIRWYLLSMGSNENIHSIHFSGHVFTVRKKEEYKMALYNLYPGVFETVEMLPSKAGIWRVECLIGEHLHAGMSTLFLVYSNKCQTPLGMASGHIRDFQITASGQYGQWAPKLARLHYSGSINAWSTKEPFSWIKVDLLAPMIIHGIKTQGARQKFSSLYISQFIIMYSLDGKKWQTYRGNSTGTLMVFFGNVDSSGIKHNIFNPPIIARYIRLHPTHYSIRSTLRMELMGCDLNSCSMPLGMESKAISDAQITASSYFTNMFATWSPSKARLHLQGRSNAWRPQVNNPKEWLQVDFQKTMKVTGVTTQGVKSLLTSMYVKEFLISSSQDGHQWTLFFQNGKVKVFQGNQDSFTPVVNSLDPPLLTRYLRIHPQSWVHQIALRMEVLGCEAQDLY

[7] = target: Coagulation factor X (Homo sapiens) (UniProt P00742); assay: Inhibition of calcium-dependent membrane binding activity of factor 10a
Coagulation factor V [8] = target: T1, Coagulation factor V; assay: Inhibition of factor 5a-mediated prothrombin activation in human plasma at 50 uM in presence of 40 mg/ml albumin; format: cell-free; set-up: scale not given: the % may be the effect or the level left

Row | SMILES | inhibition (Coagulation factor V [1]) | Activity [2] | IC50 (Coagulation factor V [3]) | IC50 (Coagulation factor V [4]) | IC50 (Coagulation factor V [5]) | Activity [6] | IC50 (Coagulation factor VIII) | Activity [7] | Activity (Coagulation factor V [8])
1 | N=c1n(CCN2CCCCC2)c2ccccc2n1CC(O)COc1ccc(Cl)cc1Cl (single isomer, unassigned) | > 99% | inactive | 15.7 µM | 32.4 µM | 14 µM | inactive | 7.8 µM | – | –
2 | CC(C)NC[C@@H](O)Cn1c2c(c3ccccc31)CCc1c-2cnn1-c1ccccc1 | > 99% | inactive | – | 3.8 µM | – | – | – | inactive | –
3 | CC1=NN(c2ccc(Br)cc2)C(=O)/C1=C/c1ccc(-c2cccc(C(=O)O)c2)o1 | > 99% | inactive | – | 1.81 µM | – | – | – | inactive | –
4 | O=C1NC(=O)N(c2ccccc2F)C(=O)/C1=C\c1cc(Cl)ccc1OCc1ccc([N+](=O)[O-])cc1 | > 99% | inactive | 14.1 µM | 38 µM | 21.9 µM | inactive | 8.9 µM | – | –
5 | CCOc1cc(/C=C2/NC(=O)N(Cc3ccccc3F)C2=O)ccc1OCc1ccc(C(=O)O)cc1 | > 99% | inactive | 2.5 µM | 18.6 µM | 3.51 µM | inactive | – | inactive | 25%
6 | CC1=NN(c2cccc(C(=O)O)c2)C(=O)/C1=C\c1ccc(-c2ccc([N+](=O)[O-])cc2)o1 | > 99% | inactive | 8.56 µM | 9.19 µM | 6.71 µM | inactive | – | inactive | –
7 | O=C(COc1ccc(Cl)cc1Cl)Nc1ccc(C(=O)Nc2ccccc2C(=O)O)cc1 | > 99% | inactive | 14.1 µM | 40.6 µM | 16.4 µM | inactive | – | inactive | –
8 | Cc1cc(-c2ccc(/C=C3/C(=O)NN(c4cccc(Cl)c4)C3=O)o2)c([N+](=O)[O-])cc1C | > 99% | inactive | 8.55 µM | 8.95 µM | 7.4 µM | inactive | – | inactive | –
9 | COc1cc([N+](=O)[O-])ccc1-c1ccc(/C=C2\C(=O)NC(=O)N(c3ccc4c(c3)OCO4)C2=O)o1 | > 99% | inactive | 4.8 µM | 62.9 µM | 5.53 µM | inactive | – | inactive | –
